In series [1] the test system is activated pDCs. The series can be described thus: Phenotype of activated pDCs (flow cytometry of maturation markers). Format: cell-based, human. As for the experimental part:
(§1) pDCs were isolated from fresh peripheral blood mononuclear cells (PBMCs) by magnetic selection. Cell viability, phenotype and intracellular cytokine analyses were performed with flow cytometry. ELISA was used to analyze the cytokine concentration in supernatants.
Given the above results, it was addressed whether activated pDCs phenotype could be similarly impacted by ATO treatment.
(In general: Flow cytometry measures light scatter and fluorescence of single cells or particles in a stream.)

The test system of series [2] is human pDCs. Kind of series: Viability of human pDCs (Fixable Viability Dye, flow cytometry). Format: cell-based. The settings on record: 24h of culture. As to the method:
as §1
First, the effect of ATO on the viability of human pDCs was investigated. […] (% of living pDCs: 56.36±6.44% with 0µM vs 32.02±7.12% with 1µM of ATO, p=0.039)

The subject of series [3] is CD4+ naïve T cells co-cultured with ATO-treated activated pDCs. Kind of series: Mixed lymphocyte reaction (MLR) of pDCs and CD4+ naïve T cells: T cell proliferation. To be noted: pDCs treated with 0.5µM of ATO, n=4; 0µM control 44.97±2.53%. The class given is cell-based, human. As for the experimental part:
as §1
In order to evaluate whether ATO can influence the capability of pDCs to activate T cells, mixed lymphocyte reaction (MLR) of pDCs and CD4+ naïve T cells were performed.

Series [4] concerns pDCs after TLR9 activation. The series can be described thus: Cytokine and chemokine secretion by pDCs after TLR9 activation (ELISA of supernatants). The class given is cell-based, human. The settings on record: 0.5µM of ATO, 24h, n=4. As to the method:
as §1
Then, the effect of low dose ATO (corresponding to a non-lethal, therapeutic dose) on cytokine and chemokine secretion by pDCs after TLR9 activation was studied. ELISA test of supernatants of sorted pDCs cultured with ATO for 24h were studied (n=4).

The subject of series [5] is naïve CD4+ T cells. The series can be described thus: pDC capacity to polarize naïve CD4+ T cells (intracellular staining and ELISA of MLR supernatants). The class given is cell-based, human. To be noted: pDCs previously treated with ATO. As to the method:
as §1
In addition, the effect of ATO treatment on pDC capacity to polarize naïve CD4+ T cells was assessed.
(In an ELISA, binding on a coated surface is turned into a signal by an enzyme label.)

Setting [6] is: 24h culture with non-lethal doses of ATO.

A value given as a limit tells only on which side of the number the result lay.

Take arsenic trioxide [ATO]: in series [1] (0.5µM of ATO, 24h, n=4, 0µM control 61.44±2.37%, p=0.005), the “PD-L1+ pDCs” value came out at 73.27 ±3.72%. In series [1] (setting [6]), the “% of CD86+ and CCR7+ pDCs” value is “significant decrease”; the “relative fluorescence intensity (RFI) of CD80, CD86, and HLA-DR expressions” value was “significant decrease”. Also, in series [1] (24h culture with non-lethal doses of ATO, p=0.09), the “RFI for PD-L1 expression” value is on record as “increase”. The “% of living pDCs” value in series [2] (1µM of ATO, 0µM control 56.36±6.44%, p=0.039) is recorded as 32.02±7.12%. Moreover, the “ATO concentration that significantly decreased viability of both non-activated and activated pDCs” value in series [2] is ≥ 1 µM. Also, the “% of proliferating T cells” value in series [3] is reported as 37.98±2.11%. For the same substance, the IL-6 secretion in series [4] (0µM control 2.31 ±0.39ng/ml, p=0.029) came to 1.66 ± 0.32 ng/mL. Also, in series [4] (0µM control 6.23±0.92ng/ml, p=0.005), the TNF-α secretion was 3.99 ± 0.79 ng/mL. Further, in series [4] (0µM control 13.06±0.98ng/ml, p=0.036), the CXCL10 secretion was determined as 9.44 ± 0.97 ng/mL. The substance further gave an IFN-α secretion in series [4] (0µM control 53.24±6.61ng/ml, p=0.004) of 25.81 ± 7.70 ng/mL. Also, in series [5] (ELISA), the “IL-10 concentration in the supernatants of MLR” value was “no change” and the “IL-17, IL-22 concentrations in the supernatants of MLR” value is reported as “significant decrease”. In addition, the “IL-22 positive cells in T cells” value in series [5] (intracellular staining, untreated 11.67%) was found to be 7.22%. In addition, the “IFN-γ positive cells in T cells” value in series [5] (intracellular staining, untreated 41.13%) came to 29.09%. The “TNF-α positive cells in T cells” value in series [5] (intracellular staining, untreated 47.10%) came to 35.40%.

The values above are taken from EP3459551A1, “USE OF ARSENIC TRIOXIDE IN THE PREVENTION OR TREATMENT OF DISEASES ASSOCIATED WITH TYPE I […] ACTIVATION” (Medsenic, priority 2017, dated 2019).
